The source of these data is patent publication US7825155B2, “Oxindole derivative as feeding control agent” (priority 2005, dated 2010).

Assay [1] concerns the target T1, human GHSR (growth hormone secretagogue receptor) (Homo sapiens, UniProt Q92847).
T1 construct: host or cells: CHO-K1
The class given is cell-based. As to conditions: 1 μM compound, 10 nM Ghrelin, human GHSR CHO-K1 cells. As to the method:
Assessment of Ghrelin Antagonism Using Human GHSR Stably Expressing Cells
By using cells wherein human GHSR (growth hormone secretagogue receptor) is stably expressed, the effects of compounds of the Examples on elevation of cellular calcium ion concentrations were evaluated when endogenous ligand Ghrelin was added to the cells.
Human GHSR stably expressing CHO-K1 cells (EUROSCREEN) were seeded on 96-well assay plate (Black plate, Clear Bottom (Corning)) in 2×10^4 cells/100 μl/well, and incubated in cell culture device for 1 day at 37° C. under 5% CO2. […]
Ghrelin was combined with an equal amount of the test compound which was prepared with Hanks/Hepes (pH7.4) in a concentration of 10-times of the final concentration, and the mixture was added to the cells in 50 μl/well. Immediately after that, excitation wavelength in 488 nm was measured by FLIPR (Molecular Devices) 80 times at 1 second interval. Ghrelin antagonistic ratio (%) of the compound in the concentration of 1 μM was calculated according to the following equation wherein the values of fluorescence intensity means those obtained by deducting the minimum value from the maximum value. […]
A: Fluorescence intensity in case of adding 1 μM of the compound and 10 nM of Ghrelin
B: Fluorescence intensity in case of no addition of the compound and Ghrelin
C: Fluorescence intensity in case of adding only 10 nM of Ghrelin

The subject of assay [2] is Ghrelin-induced feeding increasing mice. The experiment in a line: Assessment of feeding in mice (Ghrelin-induced feeding increasing mice). It is filed as in vivo. The conditions noted are these: ICR mice, compound i.p. 12.5, 25, 50 mg/kg, Ghrelin 250 nmol/kg i.v., 1, 2 and 4 hours. The method, then: Assessment of Feeding in Mice
The effects of compounds of the Examples on the feeding amount in intraperitoneally administering the compound were evaluated using Ghrelin-induced feeding increasing mice.
ICR mice (male, 7-week-old, Charles River Laboratories) were fed in 5 mice in each cage. Food (CE-2, Oriental Yeast Co., Ltd.) and sterile tap water were intaken freely.
ICR mice were intraperitoneally administered the compound (12.5, 25, 50 mg/kg) miscible in 10% polyethylene glycol #400, and immediately after that, intravenously administered Ghrelin (250 nmol/kg) dissolved in saline.
The food weight was measured 4 times in total: just before the administration of Ghrelin, and 1, 2 and 4 hours after the administration. The inhibition ratio was calculated according to the following equation and the integrated feeding amount until each measuring time point. Each treatment group consisted of 10 mice.
Inhibition ratio (%)=(B−C)/(B−A)×100
A: Feeding amount (g) in group administered with only vehicle
B: Feeding amount (g) in group administered with only Ghrelin
C: Feeding amount (g) in group administered with Ghrelin and test compound

T1 sequence (Q92847 whole entry): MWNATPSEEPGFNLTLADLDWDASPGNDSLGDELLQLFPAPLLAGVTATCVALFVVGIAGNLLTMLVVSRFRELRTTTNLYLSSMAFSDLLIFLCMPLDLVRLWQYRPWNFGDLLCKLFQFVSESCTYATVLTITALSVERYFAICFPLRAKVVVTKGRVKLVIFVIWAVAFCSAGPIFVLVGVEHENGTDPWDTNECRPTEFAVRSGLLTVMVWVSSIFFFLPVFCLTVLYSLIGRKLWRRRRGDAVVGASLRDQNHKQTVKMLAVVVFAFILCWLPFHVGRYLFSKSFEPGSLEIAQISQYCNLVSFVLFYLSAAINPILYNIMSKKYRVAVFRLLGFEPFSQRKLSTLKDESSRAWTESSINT

On to `CCN(CC)[C@H]1C[C@H](CN2C(=O)C(O)(c3ccc(Cl)cc3Cl)c3c2cc(C(N)=O)cc3C(F)(F)F)C1.Cl` (stereo partly drawn) [Example 1, 3-(2,4-dichlorophenyl)-1-[trans-3-(diethylamino)-cyclobutylmethyl]-4-trifluoromethyl-3-hydroxy-2-oxoindoline-6-carboxamide Hydrochloride], for which, in assay [1], the Ghrelin antagonistic ratio stood at 82%. Besides, in assay [2], the “Inhibition ratio of feeding amount, maximum” value was 110%. In the case of `CCN(CC)[C@H]1C[C@H](CN2C(=O)C(O)(c3ccc(Cl)cc3Cl)c3c2cc(-c2ncco2)cc3C(F)(F)F)C1` (stereo partly drawn) [Example 14, 3-(2,4-dichlorophenyl)-1-[trans-3-(diethylamino)-cyclobutylmethyl]-4-trifluoromethyl-3-hydroxy-6-(2-oxazolyl)-1,3-dihydro-2H-indol-2-one], in assay [1], the Ghrelin antagonistic ratio is listed as 74%.
